Laboratory results taken from the supplement of paper PMC9663587.

Legend:
Flavopiridol = compound: CN1CC[C@H](c2c(O)cc(O)c3c(=O)cc(-c4ccccc4Cl)oc23)[C@H](O)C1 [Flavopiridol]; assay: increase in dead-cell fraction, 72 h; higher = more death;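 note: breast cancer cell lines in 384-well plates, stained with Hoechst plus LIVE/DEAD far red dye and imaged, cells above an LDR intensity threshold counted dead, Hoechst-negative corpses included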
[1] = compound: CCc1cnn2c(NCc3ccc[n+]([O-])c3)cc(N3CCCC[C@H]3CCO)nc12; assay: as above
[2] = compound: CCN1CCN(Cc2ccc(Nc3ncc(F)c(-c4cc(F)c5nc(C)n(C(C)C)c5c4)n3)nc2)CC1; assay: as above
BSJ-03-123 = compound: CC(=O)c1c(C)c2cnc(Nc3ccc(N4CCN(CCOCCOCCOCCNC(=O)COc5cccc6c5C(=O)N(C5CCC(=O)NC5=O)C6=O)CC4)cn3)nc2n(C2CCCC2)c1=O [BSJ-03-123]; assay: as above
THZ1 = compound: CN(C)C/C=C/C(=O)Nc1ccc(C(=O)Nc2cccc(Nc3ncc(Cl)c(-c4c[nH]c5ccccc45)n3)c2)cc1 [THZ1]; assay: as above
[3] = compound: CC(=O)c1c(C)c2cnc(Nc3ccc(N4CCNCC4)cn3)nc2n(C2CCCC2)c1=O; assay: as above
LEE011/Ribociclib = compound: CN(C)C(=O)c1cc2cnc(Nc3ccc(N4CCNCC4)cn3)nc2n1C1CCCC1 [LEE011/Ribociclib]; assay: as above
Neratinib/HKI272 = compound: CCOc1cc2ncc(C#N)c(Nc3ccc(OCc4ccccn4)c(Cl)c3)c2cc1NC(=O)/C=C/CN(C)C [Neratinib/HKI272]; assay: as above
AZD6738 = compound: C[C@@H]1COCCN1c1cc(C2([S@](C)(=N)=O)CC2)nc(-c2cc[nH]c3nccc2-3)n1 [AZD6738]
Tivantinib/ARQ197 = compound: O=C1NC(=O)[C@@H](c2cn3c4c(cccc24)CCC3)[C@@H]1c1c[nH]c2ccccc12 [Tivantinib/ARQ197]
[4] = compound: CCC1=CN=CN=C1N2CCN(CC2)CC3=NC4=C(N3)C=C(C=C4)C(F)(F)F
AZD2014 = compound: CNC(=O)c1cccc(-c2ccc3c(N4CCOC[C@@H]4C)nc(N4CCOC[C@@H]4C)nc3n2)c1 [AZD2014]
Vorinostat = compound: O=C(CCCCCCC(=O)Nc1ccccc1)NO [Vorinostat]
Ipatasertib/GDC0068 = compound: CC(C)NC[C@@H](C(=O)N1CCN(c2ncnc3c2[C@H](C)C[C@H]3O)CC1)c1ccc(Cl)cc1 [Ipatasertib/GDC0068]
[5] = compound: CCN1CCN(Cc2ccc(Nc3ncc(F)c(-c4cc(F)c5nc(C)n(C(C)C)c5c4)n3)nc2)CC1
[6] = compound: CC(=O)Nc1cccc(-n2c(=O)n(C3CC3)c(=O)c3c(Nc4ccc(I)cc4F)n(C)c(=O)c(C)c32)c1
[7] = compound: COc1ccc2c(c1)[C@]1(C[C@H]1c1ccc3c(/C=C/c4ccc(CN5C[C@@H](C)O[C@@H](C)C5)cc4)n[nH]c3c1)C(=O)N2
AZD7762 = compound: NC(=O)Nc1cc(-c2cccc(F)c2)sc1C(=O)N[C@H]1CCCNC1 [AZD7762]
BSJ-01-175 = compound: CN(C)C/C=C/C(=O)Nc1ccc(O[C@@H]2CCC[C@@H](Nc3ncc(Cl)c(-c4c[nH]c5ccccc45)n3)C2)cc1 [BSJ-01-175]
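Throughout, for GR50, 72 h: breast cancer and non-malignant breast epithelial cell lines, Deep Dye Drop or Dye Drop imaging, nine half-log doses, GR normalized to time-zero plates and DMSO-only controls.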

MCF12A was tested, and the “increase in dead-cell fraction” value (Flavopiridol; 0.0001 µM) was 0.0046, the “increase in dead-cell fraction” value (Flavopiridol; 0.0003162 µM) was 0.0087 and the “increase in dead-cell fraction” value (Flavopiridol; 0.001 µM) was 0.0086. The “increase in dead-cell fraction” value (Flavopiridol; 0.003162 µM) was 0.0003, the “increase in dead-cell fraction” value (Flavopiridol; 0.01 µM) was -0.0016 and the “increase in dead-cell fraction” value (Flavopiridol; 0.03162 µM) was 0.0044. The “increase in dead-cell fraction” value (Flavopiridol; 0.1 µM) was 0.0096, the “increase in dead-cell fraction” value (Flavopiridol; 0.3162 µM) was 0.0302 and the “increase in dead-cell fraction” value (Flavopiridol; 1 µM) was 0.479. The “increase in dead-cell fraction” value ([1]; 0.0001 µM) was -0.0058, the “increase in dead-cell fraction” value ([1]; 0.0003162 µM) was 0.0036 and the “increase in dead-cell fraction” value ([1]; 0.001 µM) was 0.0056. For the same cell line, the “increase in dead-cell fraction” value ([1]; 0.003162 µM) was -0.0029, the “increase in dead-cell fraction” value ([1]; 0.01 µM) was 0.0006 and the “increase in dead-cell fraction” value ([1]; 0.03162 µM) was 0.0291. The “increase in dead-cell fraction” value ([1]; 0.1 µM) was 0.541, the “increase in dead-cell fraction” value ([1]; 1 µM) was 0.517 and the “increase in dead-cell fraction” value ([2]; 0.001 µM) was -0.003. The “increase in dead-cell fraction” value ([2]; 0.003162 µM) was 0.0003, the “increase in dead-cell fraction” value ([2]; 0.01 µM) was -0.0021 and the “increase in dead-cell fraction” value ([2]; 0.03162 µM) was 0.0015. For the same cell line, the “increase in dead-cell fraction” value ([2]; 0.1 µM) was 0.006, the “increase in dead-cell fraction” value ([2]; 0.3162 µM) was 0.0113 and the “increase in dead-cell fraction” value ([2]; 1 µM) was 0.0148. The “increase in dead-cell fraction” value ([2]; 3.162 µM) was 0.0231, the “increase in dead-cell fraction” value ([2]; 10 µM) was 0.0492 and the “increase in dead-cell fraction” value (BSJ-03-123; 0.001 µM) was -0.0046. For the same cell line, the “increase in dead-cell fraction” value (BSJ-03-123; 0.003162 µM) was 0.0003, the “increase in dead-cell fraction” value (BSJ-03-123; 0.01 µM) was 0.0014 and the “increase in dead-cell fraction” value (BSJ-03-123; 0.03162 µM) was -0.0002. The “increase in dead-cell fraction” value (BSJ-03-123; 0.1 µM) was 0.0054, the “increase in dead-cell fraction” value (BSJ-03-123; 0.3162 µM) was 0.0008 and the “increase in dead-cell fraction” value (BSJ-03-123; 1 µM) was 0.0162. The “increase in dead-cell fraction” value (BSJ-03-123; 3.162 µM) was 0.0226, the “increase in dead-cell fraction” value (BSJ-03-123; 10 µM) was 0.151 and the “increase in dead-cell fraction” value (THZ1; 0.0001 µM) was 0. The “increase in dead-cell fraction” value (THZ1; 0.0003162 µM) was -0.007, the “increase in dead-cell fraction” value (THZ1; 0.001 µM) was 0.0031 and the “increase in dead-cell fraction” value (THZ1; 0.003162 µM) was 0.0056. The “increase in dead-cell fraction” value (THZ1; 0.01 µM) was 0.0015, the “increase in dead-cell fraction” value (THZ1; 0.03162 µM) was 0.0071 and the “increase in dead-cell fraction” value (THZ1; 0.1 µM) was 0.0475. For the same cell line, the “increase in dead-cell fraction” value (THZ1; 0.3162 µM) was 0.127, the “increase in dead-cell fraction” value (THZ1; 1 µM) was 0.697 and the “increase in dead-cell fraction” value ([3]; 0.0003162 µM) was -0.0052. The “increase in dead-cell fraction” value ([3]; 0.001 µM) was -0.0036, the “increase in dead-cell fraction” value ([3]; 0.003162 µM) was -0.0043 and the “increase in dead-cell fraction” value ([3]; 0.01 µM) was -0.0067. The “increase in dead-cell fraction” value ([3]; 0.03162 µM) was -0.005, the “increase in dead-cell fraction” value ([3]; 0.1 µM) was -0.003 and the “increase in dead-cell fraction” value ([3]; 0.3162 µM) was 0.0031. The “increase in dead-cell fraction” value ([3]; 1 µM) was 0.006, the “increase in dead-cell fraction” value ([3]; 3.162 µM) was 0.0205 and the “increase in dead-cell fraction” value (LEE011/Ribociclib; 0.001 µM) was 0.0031. For the same cell line, the “increase in dead-cell fraction” value (LEE011/Ribociclib; 0.003162 µM) was -0.0078, the “increase in dead-cell fraction” value (LEE011/Ribociclib; 0.01 µM) was 0.0001 and the “increase in dead-cell fraction” value (LEE011/Ribociclib; 0.03162 µM) was 0.0156. The “increase in dead-cell fraction” value (LEE011/Ribociclib; 0.1 µM) was 0.002, the “increase in dead-cell fraction” value (LEE011/Ribociclib; 0.3162 µM) was 0.0029 and the “increase in dead-cell fraction” value (LEE011/Ribociclib; 1 µM) was 0.0076. For the same cell line, the “increase in dead-cell fraction” value (LEE011/Ribociclib; 3.162 µM) was 0.0018, the “increase in dead-cell fraction” value (LEE011/Ribociclib; 10 µM) was 0.0126 and the “increase in dead-cell fraction” value (Neratinib/HKI272; 0.0003162 µM) was -0.002. The “increase in dead-cell fraction” value (Neratinib/HKI272; 0.001 µM) was 0.0045, the “increase in dead-cell fraction” value (Neratinib/HKI272; 0.003162 µM) was 0.0065 and the “increase in dead-cell fraction” value (Neratinib/HKI272; 0.01 µM) was -0.0012. For the same cell line, the “increase in dead-cell fraction” value (Neratinib/HKI272; 0.03162 µM) was -0.0009, the “increase in dead-cell fraction” value (Neratinib/HKI272; 0.1 µM) was 0.0012 and the “increase in dead-cell fraction” value (Neratinib/HKI272; 0.3162 µM) was 0.029. For the same cell line, the “increase in dead-cell fraction” value (Neratinib/HKI272; 1 µM) was 0.0776, the “increase in dead-cell fraction” value (Neratinib/HKI272; 3.162 µM) was 0.146 and the “GR50, 72 h” value (AZD6738) was 3.06 µM. For the same cell line, the “GR50, 72 h” value (Tivantinib/ARQ197) was 0.291 µM, the “GR50, 72 h” value [4] was greater than 10 µM and the “GR50, 72 h” value (AZD2014) was 0.0768 µM. The “GR50, 72 h” value (Vorinostat) was 6.67 µM, the “GR50, 72 h” value (Ipatasertib/GDC0068) was greater than 10 µM and the “GR50, 72 h” value [5] was 5.94 µM. For the same cell line, the “GR50, 72 h” value [6] was 0.00833 µM, the “GR50, 72 h” value [7] was 0.0103 µM and the “GR50, 72 h” value (AZD7762) was 0.129 µM. For the same cell line, the “GR50, 72 h” value (BSJ-01-175) was 4.32 µM.
